Measured values published in patent US10414811B2, “Protease-resistant lipidated GLP-1 analogs” (MEDIMMUNE LIMITED, priority 2015, dated 2019).
Where two headings read alike, the source gives them in different places. Numbered stars: 1 amine (or outer) side, 2 acyl side, 3 side chain; on linkers, the order of the positions; unused ones are H or OH. Square brackets hold non-standard residues; d marks the D form. Side chains are listed from the residue outwards. Peptide text beside a SMILES is read from it. * marks the point of attachment. γGlu = O=C(O)[C@H](CCC(=O)[*:2])N[*:1]; Palmitoyl = CCCCCCCCCCCCCCCC(=O)*; αMeF = C[C@](N)(Cc1ccccc1)C(=O)O; αMeK = C[C@](N)(CCCCN)C(=O)O; Lauroyl = CCCCCCCCCCCC(=O)*; αMeS = C[C@](N)(CO)C(=O)O; AEEA = NCCOCCOCC(=O)O; Aib = CC(C)(N)C(=O)O

Tests used:
Assay type in all cases: cell-based
[1] = target: T1, human glucagon receptor (GCGR) (Homo sapiens, UniProt P47871); assay: cAMP assay, human GCGR cells
T1 construct: expressed in transfected cells
T1 sequence (P47871 26-477): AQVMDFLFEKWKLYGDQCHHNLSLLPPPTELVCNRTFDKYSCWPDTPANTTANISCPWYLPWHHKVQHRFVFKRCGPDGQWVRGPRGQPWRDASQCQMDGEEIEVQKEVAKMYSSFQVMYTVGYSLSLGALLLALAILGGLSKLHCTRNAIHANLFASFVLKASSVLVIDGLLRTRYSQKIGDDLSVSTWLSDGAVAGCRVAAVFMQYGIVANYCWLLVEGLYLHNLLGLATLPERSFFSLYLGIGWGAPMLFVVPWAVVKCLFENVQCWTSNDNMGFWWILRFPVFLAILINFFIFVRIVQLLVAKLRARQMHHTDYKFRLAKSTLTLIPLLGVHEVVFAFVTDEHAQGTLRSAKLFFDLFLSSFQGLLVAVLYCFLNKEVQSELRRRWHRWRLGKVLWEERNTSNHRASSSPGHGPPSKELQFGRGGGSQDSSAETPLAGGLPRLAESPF
Procedure, shortened: (§1)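 Peptide-stimulated cAMP measured by two-step HTRF after a 30 min room-temperature incubation with receptor-expressing cells (hGLP-1R, hGIPR at 1×10^5 cells/ml; hGCGR at 2×10^5 cells/ml). Duplicate dilutions; EC50 from 4-parameter logistic fit of % Delta F.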

[2] = target: T2, human glucose-dependent insulinotropic peptide receptor (GIPR) (Homo sapiens, UniProt P48546); assay: cAMP assay, human GIPR cells
T2 construct: expressed in transfected cells
T2 sequence (P48546 22-466): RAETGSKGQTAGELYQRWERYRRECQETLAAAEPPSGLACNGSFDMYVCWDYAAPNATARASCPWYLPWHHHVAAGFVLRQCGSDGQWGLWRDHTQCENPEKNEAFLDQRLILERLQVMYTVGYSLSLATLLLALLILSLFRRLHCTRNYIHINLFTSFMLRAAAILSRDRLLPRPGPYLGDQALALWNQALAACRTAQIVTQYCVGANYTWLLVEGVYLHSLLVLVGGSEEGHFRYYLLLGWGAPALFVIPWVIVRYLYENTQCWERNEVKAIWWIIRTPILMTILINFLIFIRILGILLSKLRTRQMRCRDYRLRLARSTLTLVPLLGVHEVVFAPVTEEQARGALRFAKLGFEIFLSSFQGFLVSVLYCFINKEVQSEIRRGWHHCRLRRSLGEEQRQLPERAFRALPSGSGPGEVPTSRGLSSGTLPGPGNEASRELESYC
Procedure, shortened: as §1

[3] = target: T3, human GLP-1 receptor (GLP-1R) (Homo sapiens, UniProt P43220); assay: cAMP assay, human GLP-1R cells
T3 construct: expressed in transfected cells
T3 sequence (P43220 24-463): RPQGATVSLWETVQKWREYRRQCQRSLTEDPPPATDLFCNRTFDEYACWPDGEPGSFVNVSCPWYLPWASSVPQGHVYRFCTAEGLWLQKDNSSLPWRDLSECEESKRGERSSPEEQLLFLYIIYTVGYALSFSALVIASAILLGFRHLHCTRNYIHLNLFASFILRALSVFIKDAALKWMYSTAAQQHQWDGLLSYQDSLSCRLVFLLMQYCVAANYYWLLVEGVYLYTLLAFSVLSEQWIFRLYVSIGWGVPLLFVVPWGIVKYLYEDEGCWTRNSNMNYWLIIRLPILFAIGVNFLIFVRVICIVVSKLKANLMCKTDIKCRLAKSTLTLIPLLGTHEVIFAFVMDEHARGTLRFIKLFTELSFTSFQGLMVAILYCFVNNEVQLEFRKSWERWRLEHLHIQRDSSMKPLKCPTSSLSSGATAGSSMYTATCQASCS
Procedure, shortened: as §1

[4] = cAMP assay, first determination (n1), read-out: Primary assay EC50 Gluc-R (n1)
[5] = cAMP assay, second determination (n2), read-out: Primary assay EC50 Gluc-R (n2)
[6] = cAMP assay, first determination (n1), read-out: Primary assay EC50 GIP-R (n1)
[7] = cAMP assay, second determination (n2), read-out: Primary assay EC50 GIP-R (n2)
[8] = cAMP assay, first determination (n1), read-out: Primary assay EC50 GLP-1R n1
[9] = cAMP assay, second determination (n2), read-out: Primary assay EC50 GLP-1R n2
[10] = mean of n1 and n2, read-out: Mean pM GLP-1R

CC[C@H](C)[C@H](NC(=O)[C@](C)(Cc1ccccc1)NC(=O)[C@H](CCC(=O)O)NC(=O)[C@H](CCCCN)NC(=O)[C@H](C)NC(=O)[C@H](C)NC(=O)[C@H](CCC(=O)O)NC(=O)CNC(=O)[C@H](CCC(=O)O)NC(=O)[C@H](CC(C)C)NC(=O)[C@](C)(Cc1ccccc1)NC(=O)[C@H](CO)NC(=O)[C@H](CO)NC(=O)[C@@H](NC(=O)[C@H](CC(=O)O)NC(=O)[C@H](CO)NC(=O)[C@@H](NC(=O)[C@](C)(Cc1ccccc1)NC(=O)[C@H](CO)NC(=O)CNC(=O)[C@H](CCC(=O)O)NC(=O)C(C)(C)NC(=O)[C@@H](N)Cc1c[nH]cn1)[C@@H](C)O)C(C)C)C(=O)N[C@@H](C)C(=O)N[C@@](C)(Cc1ccccc1)C(=O)N[C@H](C(=O)N[C@H](C(=O)N[C@@H](CCCCN)C(=O)NCC(=O)NCC(=O)N[C@@H](CCCCNC(=O)COCCOCCNC(=O)COCCOCCNC(=O)CC[C@H](NC(=O)CCCCCCCCCCCCCCCCC(=O)O)C(=O)O)C(N)=O)C(C)C)C(C)C [compound 38]
EC50 [1, 4]: 25 nM
EC50 [1, 5]: 25 nM
EC50 [2, 6]: 25 nM
EC50 [2, 7]: 25 nM
EC50 [3, 8]: 62 pM
EC50 [3, 9]: 82 pM
EC50 [3, 10]: 72 pM

CCCCCCCCCCCC(=O)N[C@@H](CCC(=O)NCCOCCOCC(=O)NCCOCCOCC(=O)NCCCC[C@H](NC(=O)[C@H](CCC(=O)O)NC(=O)[C@H](CCCCNC(=O)COCCOCCNC(=O)COCCOCCNC(=O)CC[C@H](NC(=O)CCCCCCCCCCC)C(=O)O)NC(=O)[C@H](Cc1ccc(O)cc1)NC(=O)[C@H](CO)NC(=O)[C@](C)(CO)NC(=O)[C@@H](NC(=O)[C@H](CC(=O)O)NC(=O)[C@H](CO)NC(=O)[C@@H](NC(=O)[C@](C)(Cc1ccccc1)NC(=O)[C@H](CO)NC(=O)CNC(=O)[C@H](CCC(=O)O)NC(=O)C(C)(C)NC(=O)[C@@H](N)Cc1c[nH]cn1)[C@@H](C)O)C(C)C)C(=O)N[C@@H](CCC(=O)O)C(=O)N[C@@H](C)C(=O)N[C@@H](C)C(=O)N[C@@](C)(CCCCN)C(=O)N[C@@H](CCC(=O)O)C(=O)N[C@@H](Cc1ccccc1)C(=O)N[C@H](C(=O)N[C@@H](C)C(=O)N[C@@H](Cc1ccccc1)C(=O)N[C@@H](CCCCNC(=O)COCCOCCNC(=O)COCCOCCNC(=O)CC[C@H](NC(=O)CCCCCCCCCCC)C(=O)O)C(=O)N[C@H](C(=O)N[C@@H](CCC(=O)O)C(=O)NCC(=O)NCC(N)=O)C(C)C)[C@@H](C)CC)C(=O)O [compound 483] (H-H[Aib]EGS[αMeF]TSDV[αMeS]SYK([AEEA-AEEA-γGlu-Lauroyl])EK([AEEA-AEEA-γGlu-Lauroyl])EAA[αMeK]EFIAFK([AEEA-AEEA-γGlu-Lauroyl])VEGG-NH2; N-terminus assumed)
EC50 ([1]; tris-lipidated peptides, first replicate, read-out: Primary assay EC50 Gluc-R (n1)): ≥ 19.6 nM
EC50 ([2]; tris-lipidated peptides, first replicate, read-out: Primary assay EC50 GIP-R (n1)): ≥ 19.6 nM
EC50 ([3]; tris-lipidated peptides, mean of n1 and n2, read-out: Primary assay EC50 Mean pM GLP-1R): 244 pM
EC50 ([3]; tris-lipidated peptides, replicate n1, read-out: Primary assay EC50 GLP-1R n1): 229 pM
EC50 ([3]; tris-lipidated peptides, replicate n2, read-out: Primary assay EC50 GLP-1R n2): 258 pM

CC(C)C[C@H](NC(=O)[C@](C)(Cc1ccccc1)NC(=O)[C@H](CO)NC(=O)[C@H](CO)NC(=O)[C@@H](NC(=O)[C@H](CC(=O)O)NC(=O)[C@H](CO)NC(=O)[C@@H](NC(=O)[C@](C)(Cc1ccccc1)NC(=O)[C@H](CO)NC(=O)CNC(=O)[C@H](CCC(=O)O)NC(=O)C(C)(C)NC(=O)[C@@H](N)Cc1c[nH]cn1)[C@@H](C)O)C(C)C)C(=O)N[C@@H](CCC(=O)O)C(=O)NCC(=O)N[C@@H](CCC(=O)O)C(=O)N[C@@H](C)C(=O)N[C@@H](C)C(=O)N[C@@](C)(CCCCN)C(=O)N[C@@H](CCC(=O)O)C(=O)N[C@@](C)(Cc1ccccc1)C(=O)N[C@H](C(=O)N[C@@H](C)C(=O)N[C@@](C)(Cc1ccccc1)C(=O)N[C@H](C(=O)N[C@H](C(=O)N[C@@](C)(CCCCN)C(=O)NCC(=O)NCC(N)=O)C(C)C)C(C)C)C(C)C [compound 11] (H-H[Aib]EGS[αMeF]TSDVSS[αMeF]LEGEAA[αMeK]E[αMeF]VA[αMeF]VV[αMeK]GG-NH2)
EC50 [1, 4]: ≥ 100 nM
EC50 [1, 5]: ≥ 100 nM
EC50 [2, 6]: ≥ 100 nM
EC50 [2, 7]: ≥ 100 nM
EC50 [3, 8]: 32 pM
EC50 [3, 9]: 32 pM
EC50 [3, 10]: 32 pM

CCCCCCCCCCCC(=O)N[C@@H](CCC(=O)N[C@@H](CCC(=O)NCCCC[C@H](NC(=O)[C@@H](NC(=O)[C@@H](NC(=O)[C@](C)(Cc1ccccc1)NC(=O)[C@H](C)NC(=O)[C@@H](NC(=O)[C@](C)(Cc1ccccc1)NC(=O)[C@H](CCC(=O)O)NC(=O)[C@](C)(CCCCN)NC(=O)[C@H](C)NC(=O)[C@H](C)NC(=O)[C@H](CCC(=O)O)NC(=O)CNC(=O)[C@H](CCC(=O)O)NC(=O)[C@H](CC(C)C)NC(=O)[C@](C)(Cc1ccccc1)NC(=O)[C@H](CO)NC(=O)[C@](C)(CO)NC(=O)[C@@H](NC(=O)[C@H](CC(=O)O)NC(=O)[C@H](CO)NC(=O)[C@@H](NC(=O)[C@](C)(Cc1ccccc1)NC(=O)[C@H](CO)NC(=O)CNC(=O)[C@H](CCC(=O)O)NC(=O)C(C)(C)NC(=O)[C@@H](N)Cc1c[nH]cn1)[C@@H](C)O)C(C)C)[C@@H](C)CC)C(C)C)C(C)C)C(=O)NCC(=O)NCC(N)=O)C(=O)O)C(=O)O [compound 165]
EC50 [1, 4]: ≥ 27 nM
EC50 [1, 5]: ≥ 27 nM
EC50 [2, 6]: ≥ 27 nM
EC50 [2, 7]: ≥ 27 nM
EC50 [3, 8]: 14 pM
EC50 [3, 9]: 6 pM
EC50 [3, 10]: 10.2 pM

CCCCCCCCCCCCCCCC(=O)N[C@@H](CCC(=O)NCCCC[C@H](NC(=O)[C@H](C)NC(=O)[C@H](C)NC(=O)[C@H](CCC(=O)O)NC(=O)CNC(=O)[C@H](CCC(=O)O)NC(=O)[C@H](CC(C)C)NC(=O)[C@](C)(Cc1ccccc1)NC(=O)[C@H](CO)NC(=O)[C@](C)(CO)NC(=O)[C@@H](NC(=O)[C@H](CC(=O)O)NC(=O)[C@H](CC(=O)O)NC(=O)[C@@H](NC(=O)[C@](C)(Cc1ccccc1)NC(=O)[C@H](CO)NC(=O)CNC(=O)[C@H](CCC(=O)O)NC(=O)C(C)(C)NC(=O)[C@@H](N)Cc1c[nH]cn1)[C@@H](C)O)C(C)C)C(=O)N[C@@H](CCC(=O)O)C(=O)N[C@@](C)(Cc1ccccc1)C(=O)N[C@H](C(=O)N[C@@H](C)C(=O)N[C@@](C)(Cc1ccccc1)C(=O)N[C@H](C(=O)N[C@H](C(=O)N[C@@](C)(CCCCN)C(=O)NCC(=O)NCC(N)=O)C(C)C)C(C)C)[C@@H](C)CC)C(=O)O [compound 37] (H-H[Aib]EGS[αMeF]TDDV[αMeS]S[αMeF]LEGEAAK([γGlu-Palmitoyl])E[αMeF]IA[αMeF]VV[αMeK]GG-NH2)
EC50 [1, 4]: ≥ 92 nM
EC50 [1, 5]: ≥ 28 nM
EC50 [2, 6]: ≥ 92 nM
EC50 [2, 7]: ≥ 28 nM
EC50 [3, 8]: 7300 pM
EC50 [3, 9]: 1700 pM
EC50 [3, 10]: 4500 pM

CCCCCCCCCCCCCCCC(=O)N[C@@H](CCC(=O)NCCCC[C@H](NC(=O)CNC(=O)CNC(=O)[C@](C)(CCCCN)NC(=O)[C@@H](NC(=O)[C@@H](NC(=O)[C@](C)(Cc1ccccc1)NC(=O)[C@H](C)NC(=O)[C@@H](NC(=O)[C@](C)(Cc1ccccc1)NC(=O)[C@H](CCC(=O)O)NC(=O)[C@](C)(CCCCN)NC(=O)[C@H](C)NC(=O)[C@H](C)NC(=O)[C@H](CCC(=O)O)NC(=O)CNC(=O)[C@H](CCC(=O)O)NC(=O)[C@H](CC(C)C)NC(=O)[C@](C)(Cc1ccccc1)NC(=O)[C@H](CO)NC(=O)[C@](C)(CO)NC(=O)[C@@H](NC(=O)[C@H](CC(=O)O)NC(=O)[C@H](CO)NC(=O)[C@@H](NC(=O)[C@](C)(Cc1ccccc1)NC(=O)[C@H](CO)NC(=O)CNC(=O)[C@H](CCC(=O)O)NC(=O)C(C)(C)NC(=O)[C@@H](N)Cc1c[nH]cn1)[C@@H](C)O)C(C)C)[C@@H](C)CC)C(C)C)C(C)C)C(N)=O)C(=O)O [compound 32] (H-H[Aib]EGS[αMeF]TSDV[αMeS]S[αMeF]LEGEAA[αMeK]E[αMeF]IA[αMeF]VV[αMeK]GGK([γGlu-Palmitoyl])-NH2)
EC50 [1, 4]: ≥ 90 nM
EC50 [1, 5]: ≥ 90 nM
EC50 [2, 6]: ≥ 90 nM
EC50 [2, 7]: ≥ 90 nM
EC50 [3, 8]: 36 pM
EC50 [3, 9]: 18 pM
EC50 [3, 10]: 27 pM

CCCCCCCCCCCCCCCC(=O)N[C@@H](CCC(=O)NCCCC[C@H](NC(=O)[C@H](CCCNC(=N)N)NC(=O)CNC(=O)[C@H](CCCCN)NC(=O)[C@@H](NC(=O)[C@H](CC(C)C)NC(=O)[C@H](Cc1c[nH]c2ccccc12)NC(=O)[C@H](C)NC(=O)[C@@H](NC(=O)[C@H](Cc1ccccc1)NC(=O)[C@H](CCC(=O)O)NC(=O)[C@H](CCCCN)NC(=O)[C@H](C)NC(=O)[C@H](C)NC(=O)[C@H](CCC(N)=O)NC(=O)CNC(=O)[C@H](CCC(=O)O)NC(=O)[C@H](CC(C)C)NC(=O)[C@H](Cc1ccc(O)cc1)NC(=O)[C@H](CO)NC(=O)[C@H](CO)NC(=O)[C@@H](NC(=O)[C@H](CC(=O)O)NC(=O)[C@H](CO)NC(=O)[C@@H](NC(=O)[C@H](Cc1ccccc1)NC(=O)[C@@H](NC(=O)CNC(=O)[C@H](CCC(=O)O)NC(=O)C(C)(C)NC(=O)[C@@H](N)Cc1c[nH]cn1)[C@@H](C)O)[C@@H](C)O)C(C)C)[C@@H](C)CC)C(C)C)C(N)=O)C(=O)O [compound 5]
EC50 [1, 4]: ≥ 81 nM
EC50 [1, 5]: ≥ 81 nM
EC50 [2, 6]: ≥ 81 nM
EC50 [2, 7]: ≥ 81 nM
EC50 [3, 8]: 7.5 pM
EC50 [3, 9]: 5.5 pM
EC50 [3, 10]: 6.5 pM
